Where “and” joins values, the source holds several entries; their conditions need not be identical. Equal entries are not always repeated.
How the values were obtained:
[1] = test system: Caco-2 epithelial cells; assay: Cytotoxicity assay (LDH release); assay type: cell-based; conditions: 3 h; for Cytotoxicity test (LDH release, Triton X-100 lysis = 100%): single replicates, source data Fig. 5c
Method: To examine the cytotoxicity of BMK-[…], the lactate dehydrogenase (LDH) activity was measured using Cytotoxicity Detection Kit^PLUS (LDH; Roche, Switzerland) according to the manufacturer's instructions. Briefly, the monolayers of Caco-2 cells were prepared in a 96 well tissue culture plate and incubated in Dulbecco's modified-eagle medium (DMEM; ATCC) with 10% fetal bovine serum (FBS; Invitrogen), and 0.6% carboxymethylcellulose (CMC) at 37 °C under 5% CO2. […] The 2% Triton X-100 was used to release all LDH of Caco-2 cell as a positive control.

[2] = target: Pgp3 WT (Campylobacter jejuni, UniProt Q0P921); assay: Isothermal-titration calorimetry (ITC) with Pgp3 WT; assay type: binding, C. jejuni
Method: The gene encoding the amino-acid sequence of Glu21–Gln273 of Pgp3 from C. jejuni (strain ATCC 33560) was cloned into the expression vector pET-21a (Novagen) producing the recombinant wild-type Pgp3 protein with the C-terminal His6-tag ([…]). The protein expression and purification were conducted according to previously described methods with exception. The HiTrap chelating HP (GE Healthcare) column was washed with the lysis buffer containing 60 mM imidazole and the protein was eluted with a linear gradient from 100 to 500 mM imidazole. The protein was further purified by gel filtration on a HiLoad 16/60 Superdex 200 prep-grade column (GE Healthcare), which was previously equilibrated with 20 mM Tris-HCl pH 8.0 and 200 mM NaCl. The fractions containing the Pgp3 protein were pooled and concentrated to 15 mg mL^−1 for crystallization. The variants of Pgp3 (S169A, R195A, H216A, and H247A) were generated by site-directed mutagenesis using primer sets in Supplementary Table 1 and were purified as described for the WT Pgp3.
Using a micro-syringe, 2.5 μL of each inhibitor (2.25 mM) was added at intervals of 200 s to the Pgp3 solution in the cell with gentle stirring (125 rpm). The same ITC condition was applied to evaluate the KD values of BMK-S101 for each Pgp3 variant. All data were fitted to the single-binding-site model. Fitted curves were generated using GraphPad Prism 7. Data are mean ± SEM from triplicate experiments and the ITC thermograms are representative of triplicate experiments.

[3] = test system: C. jejuni ATCC 33560 WT; assay type: cell-based, Campylobacter jejuni
Method: Invasion assay was performed as described previously with modifications. Briefly, prior to bacterial infection, a monolayer of 1 × 10^5 Caco-2 cells was prepared in a 24-well tissue culture plate and incubated in DMEM with 10% FBS, and 0.6% CMC at 37 °C under 5% CO2. The cultures of wild-type C. jejuni strain with or without BMK-S301 (100 μM) and KL-L9P (1 μM) were prepared, as described above (TEM). The bacterial suspensions were diluted in DMEM with 10% FBS and 0.6% CMC, and then added onto the cell monolayer at a multiplicity of infection (MOI) of 100. After a 3 h incubation, the cells were incubated with 250 μg/mL of gentamicin in the fresh pre-warmed medium for 2 h to kill any extracellular bacteria. The wells were washed three times with 1 × PBS, and treated with 0.1% Triton X-100 in 1 × PBS for 15 min. After dilution with 1 × PBS, the suspensions were plated on MH agar to enumerate the CFU. […]

[4] = target: Pgp3 (Campylobacter jejuni, UniProt Q0P921); assay: biochemical; parameters: species or system C. jejuni
Method: Because DABCYL/FITC is a typical FRET quencher–fluorophore pair, an increase in fluorescent signals can be directly detected when it is processed by Pgp3 (Tang et al., 2013). The kinetic parameters (kcat = 0.0209 ± 0.0006 s^−1 and KM = 6.6 ± 0.7 µM) for the substrate were obtained by fitting the data to the Michaelis-Menten equation (Supplementary Fig. 8a).
The enzymatic assay for Pgp3 activity was determined using a fluorescein isothiocyanate (FITC) and 4′-([4′-(Dimethylamino)phenyl]-azo)-benzoic acid (DABCYL) pair for FRET. […] The excitation and emission spectra were set at 495 nm and 525 nm, respectively. Pgp3 (0.1 μM) in 20 mM HEPES pH 7.5, 200 mM NaCl, and 0.4 μM of zinc was used in this assay. The reaction was initiated by adding 3 μL of 0.015–2 mM substrate (final 1.56–200 μM) in the total volume of 30 μL of the reaction mixture. Initial velocities were calculated using slopes of fluorescence signal intensity in 3 min after the initiation of the reaction. In order to elucidate the inhibition mechanism of BMK-S301, initial velocities with various concentrations of substrates were measured in the presence of 40 μM BMK-S301. […] The same method was used for the determination of the IC50 values for inhibitors. Inhibitors in each concentration were pre-incubated with 0.1 μM of Pgp3 for 1 h on ice, and initial velocities were determined for 0.1, 10, 50, 100, 200, 500, and 1000 μM of each inhibitor in reaction with 10 μM of substrate. The IC50 values were calculated using GraphPad Prism 7.

Chain of Pgp3 WT (Q0P921 entry or part of it): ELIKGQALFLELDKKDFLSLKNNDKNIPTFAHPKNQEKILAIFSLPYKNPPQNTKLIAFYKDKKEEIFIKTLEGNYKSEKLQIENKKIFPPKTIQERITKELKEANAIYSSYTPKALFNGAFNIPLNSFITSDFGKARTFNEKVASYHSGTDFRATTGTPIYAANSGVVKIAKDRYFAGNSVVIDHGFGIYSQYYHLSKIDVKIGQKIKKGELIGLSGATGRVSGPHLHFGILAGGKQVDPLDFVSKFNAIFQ
Chain of Pgp3 (Q0P921 entry or part of it): as above

CC(=O)N[C@@H](Cc1ccc(S(N)(=O)=O)cc1)C(=O)N[C@H](C)C(=O)NO [BMK-S301]
Cytotoxicity test (LDH release, Triton X-100 lysis = 100%) ([1]; 10 μM): 0% (5×) and 4.598%
Cytotoxicity test (LDH release, Triton X-100 lysis = 100%) ([1]; 100 μM): 2.466% and 0% (5×)
toxicity to Caco-2 cells ([1]; LDH release, 10 or 100 μM): not toxic
Kd [2]: 3.5 ± 0.2 µM
invasion ability of WT C. jejuni ([3]; 100 μM BMK-S301 and 1 μM KL-L9P, high-viscosity medium, 3 h after infection): decreased compared to that of the untreated C. jejuni
Invasion assay (intracellular bacteria, relative) ([3]; BMK-S0301 100 μM with MAP 1 μM, single replicates, source data Fig. 5d): 90.1581 and 72.6517 and 79.6542 and 66.8677 and 113.675 and 78.0123 and 88.3559 and 93.1319 and 83.5799
IC50 [4]: 22 ± 1.4 µM
